Legend:
[1] = system: NF-κB; experiment: NF-κB Luc reporter gene in FRTL-5 thyrocytes; assay type: cell-based, rat; conditions: for NF-κB Luc Relative Luciferase Activity % of Control (±15%), +C10: 6 hours
Experimental: Poly (I:C) (the dsRNA ligand commonly used as a test compound) activates the TLR3 mediated NF-κ β/Map kinase signal pathway in FRTL-5 thyrocytes. FRTL-5 cells were transiently transfected with 100 ng of luciferase reporter pNF-κB Luc and 2 ng of internal control phRL-Tk. After 36 h, cells were incubated with 100 μg/ml poly (I:C) or endotoxin-free E. coli DNA for 6 h. Measurements were made with the Dual Luciferase Assay System (Promega). Poly (I:C) increased TLR3 mediated NF-κB mediated luciferase activity (gene expression) 6 fold; dsDNA had no effect. Further support came from electrophoretic mobility shift analyses (EMSA). When FRTL-5 thyrocytes were incubated with 100 μg/ml poly (I:C), IL-1β, TNF-α or TPA, cells lysed after 1 h, and nuclear translocation of NF-κB measured. The poly (I:C) induced p50/p65 complex formation as measured by the presence of a specific new protein/DNA complex and its inhibition by anti-p50 and p65 antibodies, but not by anti-p52, c-rel and Rel B antibodies; the complex was also supershifted by anti-p50. […] Additionally, when FRTL-5 cells were co-transfected with pCMV-BD-Elk 1 and pFR-luc, then incubated with 100 μg/ml poly (I:C) or IL-1β for 6 hrs, ELK1 transactivation was increased 2-fold by both Poly (I:C) and IL-1β when measured with the Dual Luciferase Assay System (Promega). NF-κB/MAP Kinase signals evoked by TLR3 binding dsRNA are only one portion of TLR3 functional expression.
Cells were co-transfected with ISRE-Luc and pRLTk-Int and then treated without (none) or with Poly I:C (100 μg/ml), LPS (100 ng/ml), IL-1β (10 ng/ml) TNF-α (25 ng/ml), IFN-β (100 U/ml) or IFN-γ (1000 U/ml) in the presence of DMSO (−) or C10 for 6 hours. Data were obtained using the Dual Luciferase Assay system. The effect on the ISRE element is not duplicated by an NF-κB reporter plasmid despite the similarity of the two elements: ([…])5 (SEQ ID NO:3) vs. ([…])5 (SEQ ID NO:4), respectively. Data are representative of multiple experiments.
Plasmids for Reporter Gene Assays. Human IRF-3 was amplified from human cDNA and cloned into pCR 2.1 by the TOPO/TA (Invitrogen, Carlsbad, Calif.) cloning method, and then sequenced. IRF-3 was then excised by EcoRI digestion and subcloned into pCMV-BD (Stratagene, La Jolla, Calif.) for use in transactivation assays. To construct IFN-β-luc the human IFN-β promoter sequence was amplified from human genomic DNA (Clontech, Palo Alto, Calif.)) using Ex Taq™ Polymerase (Takara, Madison, Wis.). The PCR fragment contained human IFN-β promoter sequence from −125 to +34 relative to the transcription start site (+1) and incorporated KpnI and XhoI restriction sites at the 5′ and 3′ ends, respectively. The primers were as follows: hIFN-β (−125) KpnI (5′-[…]-3′) (SEQ ID NO:9) and hIFN-β (+34) XhoI (5′-[…]-3′). (SEQ ID NO: 10) The fragment was digested with KpnI and XhoI then ligated into a similarly digested pGL3 Basic (Promega, Madison, Wis.) vector. The human MyD88 wild and dominant negative expression vectors were kindly donated by Dr. P. E. Auron. pFR-luc (5×Gal4 DNA binding domains and minimal TATA box), ISRE-Luc, NF-κB-luc and the Elk1 trans-Reporting System were purchased from Stratagene. pRL TK-Int was purchased from Promega.
Transient Expression Analysis. A DEAE procedure was used to transfect promoter-luciferase gene constructs and expression plasmids into FRTL-5 cells. Briefly, FRTL-5 cells were grown in 24-well plates to about 70% confluence, washed with 0.5 ml of serum-free culture medium (6H0 medium), then exposed to 125 μl of premade plasmid-DEAE mixture per well for 15 min at room temperature. The plasmid-DEAE mixture was prepared by incubating 100 ng of plasmid DNA, unless otherwise noted in individual experiments, with 3.125 μl of DEAE-Dextran (10 mg/ml) (Promega, Madison Wis.). FRTL-5 cells were incubated with this mixture for 2 hr at 37° C. in a CO2 incubator, before 2 ml of 6H5 medium was added. […]

[2] = system: human aortic endothelial cells (HAEC); conditions: cited from earlier work
[3] = system: iNOS; experiment: LPS-induced iNOS mRNA in RAW 264.7 macrophages (RT-PCR); assay type: cell-based, mouse; conditions: RAW 264.7, LPS 3 hours, C10 in DMSO or vehicle B
Experimental: In macrophages NO production occurs as a result of LPS induction of iNOS (C. Bogdan, Nat Immunol, 2:907-16 (2001)) and is a process that depends on autocrine signaling by IFN-β. We used standard reverse transcriptase polymerase chain reaction to detect the inhibition of LPS induced iNOS transcription in the presence of C10 (FIG. 13A). The RAW 264.7 cells were treated with LPS in the presence of C10, its vehicle control, DMSO, or another excipient vehicle (compound B; see Table 8) for 3 hours. Table 8 establishes that C10 is effective in vivo in the mouse toxic shock model and in FRTL-5 cell assays in vitro when solubilized in water in the presence of the compound B excipient, i.e., water soluble forms of C10 are effective in both in vivo and in vitro just as C10 in DMSO. In the presence of DMSO control (FIG. 13A, lane 4) or vehicle B only (FIG. 13A, lane 5) little or no iNOS reduction was detected respectively when compared to LPS only (FIG. 13A lane 3).
Standard reverse transcriptase PCR for INOS: RNA was isolated as described above and treated with DNAse a described above. […] of DNA free RNA was then reverse transcribed with the Advantage® RT-for PCR kit (BD Biosciences, Palo Alto, Calif.) in a total volume of 20 μl. Five μl of cDNA was then amplified using ExTaq™ DNA polymerase (Takara, Madison, Wis.) in a reaction volume of 25 μl. […]

## Cn1c(-c2ccccc2)cnc1S [Compound C10, 5-Phenylmethimazole]
[1]; FRTL-5, Ligand IFN-β 100 U/ml
  NF-κB Luc Relative Luciferase Activity % of Control (±15%), +C10: 150 % of Control
[1]; FRTL-5, Ligand IFN-γ 1000 U/ml
  NF-κB Luc Relative Luciferase Activity % of Control (±15%), +C10: 180 % of Control
[1]; FRTL-5, Ligand IL-1β 10 ng/ml
  NF-κB Luc Relative Luciferase Activity % of Control (±15%), +C10: 350 % of Control
[1]; FRTL-5, Ligand LPS 100 ng/ml
  NF-κB Luc Relative Luciferase Activity % of Control (±15%), +C10: 250 % of Control
[1]; FRTL-5, Ligand None
  NF-κB Luc Relative Luciferase Activity % of Control (±15%), +C10: 100 % of Control
[1]; FRTL-5, Ligand Poly (I:C) 100 μg/ml
  NF-κB Luc Relative Luciferase Activity % of Control (±15%), +C10: 300 % of Control
[1]; FRTL-5, Ligand TNF-α 25 ng/ml
  NF-κB Luc Relative Luciferase Activity % of Control (±15%), +C10: 225 % of Control
[1]; FRTL-5, 0.5 mM C10 or 5 mM MMI
  effect on Poly (I:C)-increased NF-κB-luciferase activity: minimal effect
[2]
  cytokine-induced HAEC expression of VCAM-1 (protein and mRNA): strongly inhibits
  monocytic cell adhesion to cytokine inflamed HAEC under in vitro flow conditions: inhibits
[2]; cytokine-induced, HAEC
  E-selectin expression: modest effect
  ICAM-1 expression: very little effect
[3]
  LPS induced iNOS mRNA: strong reduction
